ChEMBL document CHEMBL4406802, “Human disorders associated with inflammation and the evolving role of natural products to overcome” (Eur J Med Chem, 2019)
Blank lines part the entries; values can stand above or below the compound they belong to.

Experiments:
RAW264.7 [1] = assay: Antiinflammatory activity in mouse RAW264.7 cells assessed as inhibition of LPS-induced nitric oxide production at […] after 24 hrs by Griess reagent based assay relative to control; assay type: functional; set-up: dose or concentration left out as unconfirmed; conditions: RAW264.7, 24 h
RAW264.7 [2] = assay: Antiinflammatory activity against mouse RAW264.7 cells assessed as inhibition of LPS induced iNOS at 30 uM preincubated for 1 hr followed by LPS stimulation measured after 18 hrs relative to control; assay type: functional
[3] = Inhibition of TNFalpha-induced NFkappaB (unknown origin) activation expressed in mouse NIH-3T3 cells […] followed by TNFalpha addition measured after 6 hrs by luciferase reporter gene assay; assay type: cell-based; conditions: NIH3T3
RAW264.7 [4] = assay: Antiinflammatory activity in mouse RAW264.7 cells assessed as inhibition of LPS-induced nitric oxide production at 25 uM relative to control; assay type: functional
[5] = target: T1, Prostaglandin G/H synthase 2 (Homo sapiens, UniProt P35354); assay: Inhibition of COX2 (unknown origin)
T1 sequence (P35354 whole entry): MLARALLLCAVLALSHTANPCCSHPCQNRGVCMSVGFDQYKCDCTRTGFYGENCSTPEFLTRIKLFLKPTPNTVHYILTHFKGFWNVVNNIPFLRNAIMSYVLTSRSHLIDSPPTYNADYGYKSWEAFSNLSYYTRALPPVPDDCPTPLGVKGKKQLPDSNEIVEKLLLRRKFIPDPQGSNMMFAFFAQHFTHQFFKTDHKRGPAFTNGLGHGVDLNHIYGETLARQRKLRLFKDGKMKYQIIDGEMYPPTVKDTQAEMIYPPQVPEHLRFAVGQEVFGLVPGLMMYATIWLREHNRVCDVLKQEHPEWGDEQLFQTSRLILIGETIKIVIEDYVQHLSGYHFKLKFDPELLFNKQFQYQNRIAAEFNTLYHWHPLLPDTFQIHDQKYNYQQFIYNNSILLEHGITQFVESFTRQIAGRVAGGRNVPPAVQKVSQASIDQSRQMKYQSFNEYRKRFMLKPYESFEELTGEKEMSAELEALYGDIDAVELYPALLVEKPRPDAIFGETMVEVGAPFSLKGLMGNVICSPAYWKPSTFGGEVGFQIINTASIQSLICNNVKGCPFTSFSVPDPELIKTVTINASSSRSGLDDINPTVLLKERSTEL

SMILES: O=c1c2ccc(O)c(O)c2oc2cc(O)cc(O)c12
inhibition (RAW264.7 [1]): 78.9%

SMILES: CC1=C2C3=CC[C@@H]4[C@@]5(C)CC[C@H](O[C@@H]6OC[C@@H](O)[C@H](O)[C@H]6O[C@@H]6O[C@H](CO)[C@@H](O)[C@H](O)[C@H]6O)C(C)(C)[C@@H]5CC[C@@]4(C)[C@]3(C)CC[C@@]2(C(=O)O[C@@H]2O[C@H](CO)[C@@H](O)[C@H](O)[C@H]2O)CC[C@H]1C
inhibition at 30 µM (RAW264.7 [2]): 75%

IC50 [3]: 45 µM
SMILES: C=C[C@]1(C)C[C@H](OC(=O)C(=C)CO)[C@@H](C(=C)C(=O)OC)[C@H](O)[C@H]1C(=C)CO

SMILES: CC(C)=CCOc1cc(O)c2c(=O)c3cc(OCC=C(C)C)c(OCC=C(C)C)cc3oc2c1
inhibition (RAW264.7 [1]): 81.4%

SMILES: CC1=C(C)[C@H]2C3=CC[C@@H]4[C@@]5(C)CC[C@H](O[C@@H]6OC[C@@H](O)[C@H](O)[C@H]6O[C@@H]6O[C@H](CO)[C@@H](O)[C@H](O)[C@H]6O)C(C)(C)[C@@H]5CC[C@@]4(C)[C@]3(C)CC[C@@]2(C(=O)O[C@@H]2O[C@H](CO)[C@@H](O)[C@H](O)[C@H]2O)CC1
inhibition at 30 µM (RAW264.7 [2]): 72%

IC50 [3]: 22.5 µM
SMILES: C=C[C@]1(C)C[C@H](OC(=O)C(=C)CO)[C@H]2C(=C)C(=O)O[C@@H]2[C@H]1C(=C)CO

SMILES: CC1CCC(O)[C@@]2(C)C[C@H]3OC(=O)[C@H](C)[C@H]3C=C12 (stereo partly drawn)
inhibition at 25 µM (RAW264.7 [4]): 14.6%

IC50 [5]: 4.5 µM
SMILES: O=C(O[C@@H]1[C@@H](c2c(O)cc(O)c3c2O[C@H](c2cc(O)c(O)c(O)c2)[C@H](OC(=O)c2cc(O)c(O)c(O)c2)C3)c2c(O)cc(O)c([C@H]3c4c(O)cc(O)cc4O[C@H](c4cc(O)c(O)c(O)c4)[C@@H]3OC(=O)c3cc(O)c(O)c(O)c3)c2O[C@@H]1c1cc(O)c(O)c(O)c1)c1cc(O)c(O)c(O)c1

SMILES: CC1=C2C3=CC[C@@H]4[C@@]5(C)CC[C@H](O[C@@H]6OC[C@@H](O)[C@H](O)[C@H]6O)C(C)(C)[C@@H]5CC[C@@]4(C)[C@]3(C)CC[C@@]2(C(=O)O[C@@H]2O[C@H](CO)[C@@H](O)[C@H](O)[C@H]2O)CC[C@H]1C
inhibition at 30 µM (RAW264.7 [2]): 64.9%

SMILES: CC1=C2C[C@H]3[C@@H](C[C@]2(C)C(O)CC1=O)OC(=O)[C@@H]3C (stereo partly drawn)
inhibition at 25 µM (RAW264.7 [4]): 23.6%

IC50 [3]: 42.1 µM
SMILES: C=C1C(=O)O[C@@H]2/C=C(\CO)CC/C=C(\C)C[C@H](OC(=O)/C(=C/C)CO)[C@@H]12

SMILES: C=C1C(=O)O[C@@H]2C[C@@]3(C)C(=C(C)C(O)CC3O)C[C@H]12 (stereo partly drawn)
inhibition at 25 µM (RAW264.7 [4]): 23.8%

SMILES: CC(C)=CCOc1cc(O)c2c(=O)c3cc(OCC=C(C)C)c(O)cc3oc2c1
inhibition (RAW264.7 [1]): 84.2%

IC50 [5]: 460 µM
SMILES: CC(C)[C@@H]1CC[C@]2(C)[C@@H]3C(C=C4[C@@H]5CC(C)(C)C(=O)C[C@]5(C)CC[C@]42C)OC(=O)CC(O)[C@]31C (stereo partly drawn)

SMILES: C=C1C(=O)O[C@@H]2C[C@]3(C)C(O)CCC(C)C3(O)C[C@H]12 (stereo partly drawn)
inhibition at 25 µM (RAW264.7 [4]): 37.1%

SMILES: C=C(CO)C(=O)O[C@H]1C/C(C)=C/CC/C(CO)=C/[C@H]2OC(=O)C(=C)[C@H]12
IC50 [3]: 8.6 µM

SMILES: COc1cc(C)c2c(=O)c3c(O)cc(OC)cc3oc2c1 [LICHEXANTHONE]
inhibition (RAW264.7 [1]): 32%

SMILES: C=C1C(=O)OC2CC(C)=C(C(C)CCCOC(C)=O)C(OC(C)=O)C12 (stereo not drawn)
inhibition at 25 µM (RAW264.7 [4]): 68.9%

SMILES: CC1(C)CC[C@]2(C(=O)O[C@@H]3O[C@H](CO)[C@@H](O)[C@H](O)[C@H]3O)CC[C@]3(C)C(=CC[C@@H]4[C@@]5(C)CC[C@H](O[C@@H]6O[C@H](C(=O)O)[C@@H](O)[C@H](O)[C@H]6O)C(C)(C)[C@@H]5CC[C@]43C)[C@@H]2C1 [CHIKUSETSUSAPONIN IVA]
inhibition at 30 µM (RAW264.7 [2]): 92.8%

IC50 [3]: 3.6 µM
SMILES: C=C[C@]1(C)C[C@H](OC(=O)C(=C)CO)[C@H]2C(=C)C(=O)O[C@@H]2[C@H]1C(=C)C=O

SMILES: CC(C)=CC[C@@H]1C[C@]23C[C@@H](CC=C(C)C)C(C)(C)[C@](CC=C(C)C)(C(=O)C(C(=O)c4ccc(O)c(O)c4)=C2OC1(C)C)C3=O
inhibition (RAW264.7 [1]): 92.9%

SMILES: COOC[C@@]1(C)CC[C@]2(C)CC[C@]3(C)[C@@H]4CC(=O)c5cc(OC)c(O)cc5[C@]4(C)CC[C@@]3(C)C2C1 (stereo partly drawn)
IC50 [5]: 660 µM

IC50 [3]: > 50 µM
SMILES: C=C(CO)C(=O)O[C@H]1C[C@@H]2[C@@H]([C@@H](O)[C@@H]1C(=C)C(=O)OC)[C@H](C=O)CC[C@H]2O
